In ChEMBL document CHEMBL5528035, “Design, Synthesis, and Biological Evaluation for First GPX4 and CDK Dual Inhibitors” (J Med Chem, 2024):
Activity calls are given as the source filed them. The calls are words filed in the database; no cut-off is given here.

How the values were obtained:
[1] = system: MDA-MB-231; assay: cells; settings: Homo sapiens, MDA-MB-231, 48 h
Description: Antiproliferative activity against human MDA-MB-231 cells assessed as inhibition of cell growth incubated for 48 hrs by CCK-8 assay

[2] = system: MDA-MB-231; assay: Induction of ferroptosis in human MDA-MB-231 cells assessed as increase in intracellular ferrous ion level at 0.5 to 2 uM incubated for 24 hrs by ferroOrange probe based flow cytometric analysis; format: functional, cell-based; settings: dose 0.5-2 µM
[3] = Toxicity in BALB/c mouse xenografted with human MDA-MB-231 cells assessed as morphological change in spleen at 40 mg/kg,ip administrated for 21 consecutive days by hematoxylin and eosin staining based analysis; format: organism-based; settings: in vivo
[4] = system: MDA-MB-231; assay: Antitumor activity against human MDA-MB-231 cells xenografted in BALB/c mouse assessed as decrease in GPX4 expression at 40 mg/kg,ip administrated for 21 consecutive days by immunohistochemistry; format: functional, organism-based
[5] = system: MDA-MB-231; assay: Induction of apoptosis in human MDA-MB-231 cells assessed as downregulation of BCL-2 expression at 0.5 to 2 uM incubated for 24 hrs by Western blotting analysis; format: functional, cell-based; settings: dose 0.5-2 µM
[6] = Toxicity in BALB/c mouse xenografted with human MDA-MB-231 cells assessed as morphological change in lung at 40 mg/kg,ip administrated for 21 consecutive days by hematoxylin and eosin staining based analysis; format: organism-based; settings: in vivo
[7] = system: HCT-116; assay: Induction of cell cycle arrest in human HCT-116 cells assessed as downregulation of phoshorylated Rb at 0.5 to 2 uM incubated for 24 hrs by Western blotting analysis; format: functional, cell-based; settings: dose 0.5-2 µM
[8] = system: MDA-MB-231; assay: Induction of cell cycle arrest in human MDA-MB-231 cells assessed as accumulation of cells at G1 phase at 0.5 to 2 uM incubated for 24 hrs by RNase/PI staining based flow cytometric analysis; format: functional; settings: dose 0.5-2 µM
[9] = Toxicity in BALB/c mouse xenografted with human MDA-MB-231 cells assessed as morphological change in kidney at 20 mg/kg,ip administrated for 21 consecutive days by hematoxylin and eosin staining based analysis; format: organism-based; settings: in vivo
[10] = system: MDA-MB-231; assay: Induction of apoptosis in human MDA-MB-231 cells assessed as upregulation of Bax expression at 0.5 to 2 uM incubated for 24 hrs by Western blotting analysis; format: functional, cell-based; settings: dose 0.5-2 µM
[11] = system: MDA-MB-231; assay: Antitumor activity against human MDA-MB-231 cells xenografted in BALB/c mouse assessed as decrease in phosphorylated Rb expression at 20 mg/kg,ip administrated for 21 consecutive days by immunohistochemistry; format: functional, organism-based
[12] = system: A549; assay: cells; settings: Homo sapiens, A549, 48 h
Description: Antiproliferative activity against human A549 cells assessed as inhibition of cell growth incubated for 48 hrs by CCK-8 assay

[13] = AUC (0 to t) in Sprague-Dawley rat at 10 mg/kg,iv administration measured upto 24 hrs by LC-MS/MS analysis; format: ADME, organism-based; settings: in vivo
[14] = system: HCT-116; assay: Induction of ferroptosis in human HCT-116 cells assessed as increase in intracellular lipid peroxide level incubated for 24 hrs by flow cytometric analysis; format: functional, cell-based
[15] = Cmax in Sprague-Dawley rat at 10 mg/kg,iv administration measured upto 24 hrs by LC-MS/MS analysis; format: ADME, organism-based; settings: in vivo
[16] = system: MDA-MB-231; assay: Antitumor activity against human MDA-MB-231 cells xenografted in BALB/c mouse assessed as tumor growth inhibition at 20 mg/kg,ip administrated for 21 consecutive days; format: functional; settings: read-out: TGI
[17] = Toxicity in BALB/c mouse xenografted with human MDA-MB-231 cells assessed as morphological change in heart at 20 mg/kg,ip administrated for 21 consecutive days by hematoxylin and eosin staining based analysis; format: organism-based; settings: in vivo
[18] = Toxicity in BALB/c mouse xenografted with human MDA-MB-231 cells assessed as morphological change in heart at 40 mg/kg,ip administrated for 21 consecutive days by hematoxylin and eosin staining based analysis; format: organism-based; settings: in vivo
[19] = Toxicity in BALB/c mouse xenografted with human MDA-MB-231 cells assessed as morphological change in liver at 40 mg/kg,ip administrated for 21 consecutive days by hematoxylin and eosin staining based analysis; format: organism-based; settings: in vivo
[20] = system: HCT-116; assay: cells; settings: Homo sapiens, HCT-116, 48 h
Description: Antiproliferative activity against human HCT-116 cells assessed as inhibition of cell growth incubated for 48 hrs by CCK-8 assay

[21] = system: MDA-MB-231; assay: Induction of ferroptosis in human MDA-MB-231 cells assessed as downregulation of GPX4 expression incubated for 24 hrs by Western blotting analysis; format: functional, cell-based
[22] = system: HCT-116; assay: Induction of ferroptosis in human HCT-116 cells assessed as downregulation of GPX4 expression incubated for 24 hrs by Western blotting analysis; format: functional, cell-based

## COc1ccc2c(c1)NC(=O)/C2=C1\Nc2ccccc2\C1=N/OCCCNC(=O)CCn1cc(COc2ccc(N(C(=O)CCl)C(C(=O)NCCc3ccccc3)c3cccs3)cc2Cl)nn1 (configuration not stated)
[1]
  IC50: 800 nM
[2]
  Activity: Active
[3]
  Activity: Non-Toxic
[4]
  Activity: Active
[5]
  Activity: Active
[6]
  Activity: Non-Toxic
[7]
  Activity: Active
[8]
  Activity: Active
[9]
  Activity: Non-Toxic
[10]
  Activity: Active
[11]
  Activity: Active
[12]
  IC50: 1020 nM
[13]
  AUC(0-t) at 24 h: 15700 ng·h/mL
[14]
  Activity: Dose-Dependent Effect
[15]
  Cmax: 9230 ng/mL
[16]
  inhibition in vivo at 20 mg/kg: 67.8%
[17]
  Activity: Non-Toxic
[18]
  Activity: Non-Toxic
[19]
  Activity: Non-Toxic
[20]
  IC50: 750 nM
[21]
  Activity: Dose-Dependent Effect
[22]
  Activity: Dose-Dependent Effect
